What all share (format): biochemical
One test has as its target T1, JAK1 (Homo sapiens, UniProt P23458).
T1 construct: purchased Invitrogen Corporation, Carlsbad, Calif; PV4775
Kind of test: JAK1 Inhibition Assay (Omnia kinase fluorescence peptide substrate assay). The conditions noted are these: averaged IC50 ranges; assay of Example B; 40 μM (Km app) or 1 mM ATP, 15 nM JAK1.

The target in the next test is T2, JAK3 (Homo sapiens, UniProt P52333).
T2 construct: purchased Invitrogen Corporation, Carlsbad, Calif; PV4080
T2 sequence (P52333 1-1124): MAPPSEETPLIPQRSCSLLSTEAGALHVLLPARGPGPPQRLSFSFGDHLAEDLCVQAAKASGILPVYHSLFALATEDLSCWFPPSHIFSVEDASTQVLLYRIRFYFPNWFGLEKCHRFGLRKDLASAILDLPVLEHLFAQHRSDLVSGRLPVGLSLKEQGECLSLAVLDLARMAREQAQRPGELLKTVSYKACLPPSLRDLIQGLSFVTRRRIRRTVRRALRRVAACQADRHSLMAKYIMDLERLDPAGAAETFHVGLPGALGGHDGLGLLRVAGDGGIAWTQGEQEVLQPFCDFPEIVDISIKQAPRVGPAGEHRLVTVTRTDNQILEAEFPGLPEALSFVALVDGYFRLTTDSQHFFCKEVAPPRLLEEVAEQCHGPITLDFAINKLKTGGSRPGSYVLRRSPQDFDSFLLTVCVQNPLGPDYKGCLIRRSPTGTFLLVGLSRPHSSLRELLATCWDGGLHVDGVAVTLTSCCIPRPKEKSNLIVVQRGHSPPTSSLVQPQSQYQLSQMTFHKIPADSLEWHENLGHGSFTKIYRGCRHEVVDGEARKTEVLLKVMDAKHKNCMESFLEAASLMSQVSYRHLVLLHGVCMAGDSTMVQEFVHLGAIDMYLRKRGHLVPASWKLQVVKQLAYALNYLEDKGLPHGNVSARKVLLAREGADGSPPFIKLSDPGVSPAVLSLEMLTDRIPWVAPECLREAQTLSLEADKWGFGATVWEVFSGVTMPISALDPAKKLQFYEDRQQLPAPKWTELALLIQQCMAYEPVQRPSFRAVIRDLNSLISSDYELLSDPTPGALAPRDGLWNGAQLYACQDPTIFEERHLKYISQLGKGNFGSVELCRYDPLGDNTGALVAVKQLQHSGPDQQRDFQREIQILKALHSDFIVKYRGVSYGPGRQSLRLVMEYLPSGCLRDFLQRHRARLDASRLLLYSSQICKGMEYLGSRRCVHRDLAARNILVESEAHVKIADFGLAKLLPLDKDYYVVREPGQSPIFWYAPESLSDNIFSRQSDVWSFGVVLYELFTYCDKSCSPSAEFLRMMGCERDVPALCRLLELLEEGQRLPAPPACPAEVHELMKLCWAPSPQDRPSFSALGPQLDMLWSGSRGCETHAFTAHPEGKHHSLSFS
Briefly: JAK3 Inhibition Assay (Omnia kinase fluorescence peptide substrate assay). The conditions noted are these: averaged IC50 ranges; assay of Example D; 10 μM (Km app) or 1 mM ATP, 2.5 nM JAK3. The procedure, abridged:
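Kinase at 2.5 nM with 10 µM Omnia Y7 peptide and 10 µM (Km app) or 1 mM ATP in 25 mM HEPES pH 7.4, 10 mM MgCl2, 1 mM DTT, 0.01% Triton X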

The target in another test is T3, Human Tyk2 kinase domain (Homo sapiens, UniProt P29597).
T3 construct: comprising amino acids 886 to 1187 with 10 additional histidine residues; 10xHis (histidine tag) (C, cleaved yes); made in house
T3 sequence (P29597 886-1187): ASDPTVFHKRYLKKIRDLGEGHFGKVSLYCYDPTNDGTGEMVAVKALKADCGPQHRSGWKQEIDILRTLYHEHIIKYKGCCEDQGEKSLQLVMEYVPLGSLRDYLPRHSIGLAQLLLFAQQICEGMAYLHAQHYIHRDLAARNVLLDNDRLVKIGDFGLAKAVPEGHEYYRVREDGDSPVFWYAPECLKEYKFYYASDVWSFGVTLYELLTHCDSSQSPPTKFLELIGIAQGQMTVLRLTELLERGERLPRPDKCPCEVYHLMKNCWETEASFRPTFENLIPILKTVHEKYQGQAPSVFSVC
Kind of test: Tyk2 Inhibition Assay (Omnia kinase fluorescence peptide substrate assay). The conditions noted are these: averaged IC50 ranges; assay of Example A; 10 μM (Km app) or 1 mM ATP, 2 nM Tyk2. The procedure, abridged: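 2 nM His-tag-cleaved kinase domain (aa 886–1187) with 8 μM Omnia Y12 peptide, 10 μM (Km app) or 1 mM ATP, pH 7.4 HEPES/10 mM MgCl2, 2% DMSO. Fluorescence (ex 360/em 485 nm) every 50 s for 45 min; IC50 from 4-parameter fit of POC, top dose 10 μM.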

A further test concerns the target T4, JAK2 (Homo sapiens, UniProt O60674).
T4 construct: purchased Invitrogen Corporation, Carlsbad, Calif; PV4288
Briefly: JAK2 Inhibition Assay (Omnia kinase fluorescence peptide substrate assay). As to conditions: averaged IC50 ranges; assay of Example C; 25 μM (Km app) or 1 mM ATP, 5 nM JAK2. The procedure, abridged: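 5 nM JAK2 phosphorylated 10 μM Omnia Y7 peptide with ATP at 25 μM (Km app) or 1 mM, in 25 mM HEPES pH 7.4, 10 mM MgCl2, 0.01% Triton X-100, 1 mM DTT, 2% DMSO. Fluorescence (360/485 nm) was read every 50 s for 45 min. 10-point 3-fold series from 10 μM; POC versus uninhibited and background controls, 4-parameter logistic IC50.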

Counter-ions that a name gives are not always drawn.

T4 sequence (O60674 whole entry): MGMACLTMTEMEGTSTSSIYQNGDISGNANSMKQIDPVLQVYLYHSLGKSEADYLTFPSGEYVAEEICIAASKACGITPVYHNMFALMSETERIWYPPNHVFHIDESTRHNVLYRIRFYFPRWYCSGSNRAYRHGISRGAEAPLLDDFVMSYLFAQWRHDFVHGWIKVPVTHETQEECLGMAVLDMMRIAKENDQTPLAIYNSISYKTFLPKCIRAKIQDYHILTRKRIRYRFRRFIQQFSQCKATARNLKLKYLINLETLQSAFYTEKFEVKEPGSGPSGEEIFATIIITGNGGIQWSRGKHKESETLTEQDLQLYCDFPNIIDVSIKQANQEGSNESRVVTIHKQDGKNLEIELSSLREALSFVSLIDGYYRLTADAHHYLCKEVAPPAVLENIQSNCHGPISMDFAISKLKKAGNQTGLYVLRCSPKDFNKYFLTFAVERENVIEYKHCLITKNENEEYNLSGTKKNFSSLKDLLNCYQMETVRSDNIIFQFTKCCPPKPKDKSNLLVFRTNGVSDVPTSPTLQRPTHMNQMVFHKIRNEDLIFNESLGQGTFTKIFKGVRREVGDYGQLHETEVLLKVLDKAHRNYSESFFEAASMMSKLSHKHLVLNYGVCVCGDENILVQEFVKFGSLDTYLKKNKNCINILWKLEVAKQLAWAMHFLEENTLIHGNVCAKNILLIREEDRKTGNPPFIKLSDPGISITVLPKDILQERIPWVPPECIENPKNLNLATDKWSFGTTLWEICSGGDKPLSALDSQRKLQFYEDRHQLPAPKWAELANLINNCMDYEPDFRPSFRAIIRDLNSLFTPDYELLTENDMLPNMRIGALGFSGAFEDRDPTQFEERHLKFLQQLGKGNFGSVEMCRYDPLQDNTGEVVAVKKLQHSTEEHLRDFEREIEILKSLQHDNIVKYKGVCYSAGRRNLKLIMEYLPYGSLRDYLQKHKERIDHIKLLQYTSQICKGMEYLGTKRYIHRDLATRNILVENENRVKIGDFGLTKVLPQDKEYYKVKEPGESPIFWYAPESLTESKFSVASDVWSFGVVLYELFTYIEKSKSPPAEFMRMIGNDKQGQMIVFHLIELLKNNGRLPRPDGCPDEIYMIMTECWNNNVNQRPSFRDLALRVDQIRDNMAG
T1 sequence (P23458 whole entry): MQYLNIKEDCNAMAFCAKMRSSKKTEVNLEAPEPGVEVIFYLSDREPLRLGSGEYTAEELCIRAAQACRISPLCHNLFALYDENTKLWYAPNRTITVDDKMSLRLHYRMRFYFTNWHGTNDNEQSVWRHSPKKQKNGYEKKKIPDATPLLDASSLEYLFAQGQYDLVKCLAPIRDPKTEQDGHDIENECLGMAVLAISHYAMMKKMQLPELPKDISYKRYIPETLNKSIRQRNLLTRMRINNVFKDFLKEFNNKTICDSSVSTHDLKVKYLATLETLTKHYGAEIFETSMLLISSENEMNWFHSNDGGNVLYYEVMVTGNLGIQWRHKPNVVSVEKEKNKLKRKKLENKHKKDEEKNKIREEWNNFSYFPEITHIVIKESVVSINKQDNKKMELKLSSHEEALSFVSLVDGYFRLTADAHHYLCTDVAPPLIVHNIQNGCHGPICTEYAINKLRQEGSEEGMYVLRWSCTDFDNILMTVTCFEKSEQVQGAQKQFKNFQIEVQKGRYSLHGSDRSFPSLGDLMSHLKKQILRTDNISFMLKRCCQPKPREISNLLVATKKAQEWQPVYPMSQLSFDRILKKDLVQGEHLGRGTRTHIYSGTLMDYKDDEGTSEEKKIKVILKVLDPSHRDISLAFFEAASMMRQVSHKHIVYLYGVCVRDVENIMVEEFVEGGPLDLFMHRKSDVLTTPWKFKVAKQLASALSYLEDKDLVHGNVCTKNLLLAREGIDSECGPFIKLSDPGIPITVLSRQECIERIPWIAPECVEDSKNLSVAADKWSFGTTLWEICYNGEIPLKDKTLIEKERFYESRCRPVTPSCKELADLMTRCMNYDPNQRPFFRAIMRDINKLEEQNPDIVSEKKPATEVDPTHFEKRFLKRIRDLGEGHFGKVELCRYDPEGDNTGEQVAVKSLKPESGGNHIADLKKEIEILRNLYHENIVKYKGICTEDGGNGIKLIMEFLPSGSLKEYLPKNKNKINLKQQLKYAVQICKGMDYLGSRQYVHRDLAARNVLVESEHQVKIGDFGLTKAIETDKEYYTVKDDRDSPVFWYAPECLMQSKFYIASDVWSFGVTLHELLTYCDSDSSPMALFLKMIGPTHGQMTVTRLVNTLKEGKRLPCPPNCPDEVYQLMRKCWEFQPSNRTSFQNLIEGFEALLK

In general, IC50 refers to the concentration needed to halve the response being measured. Read a low IC50 as greater potency. For `N#CCC(C1CC1)n1cc(-c2nc(-c3ccc(N4CC5CCC(C4)O5)cc3)cc3nccn23)cn1` (centres unmarked) [Example 58, 3-(4-(7-(4-(8-Oxa-3-azabicyclo[3.2.1]octan-3-yl)phenyl)imidazo[1,2-c]pyrimidin-5-yl)-1H-pyrazol-1-yl)-3-cyclopropylpropanenitrile], the IC50 at JAK1 was 10 to 100 nM; on JAK3 it was 100 to 1000 nM; at Human Tyk2 kinase domain, < 10 nM; at JAK2, 10 to 100 nM.
With `CN1CCN(c2ccc(-c3cc4nccn4c(-c4cnn(C(CC#N)C5CC5)c4)n3)cc2)CC1` (centres unmarked) [Example 59, 3-Cyclopropyl-3-(4-(7-(4-(4-methylpiperazin-1-yl)phenyl)imidazo[1,2-c]pyrimidin-5-yl)-1H-pyrazol-1-yl)propanenitrile], the half-inhibitory concentration (IC50) on JAK1 is 10 to 100 nM; on JAK3, 100 to 1000 nM; against Human Tyk2 kinase domain it was < 10 nM; at JAK2, 10 to 100 nM.
`Cn1cc(-c2ccc(-c3cc4nccn4c(-c4cnn(C(CC#N)C5CC5)c4)n3)cc2)cn1` (centres unmarked) [Example 60, 3-Cyclopropyl-3 (4 (7 (4 (1 methyl-1H-pyrazol-4-yl)phenyl)imidazo[1,2-c]pyrimidin-5-yl)-1H-pyrazol-1-yl)propanenitrile]: the IC50 is 10 to 100 nM on JAK1, 100 to 1000 nM on JAK3, < 10 nM on Human Tyk2 kinase domain and 10 to 100 nM against JAK2.
In the case of `Cn1cc(-c2cc3nccn3c(-c3cnn(C4(CC#N)CN(C(=O)OC(C)(C)C)C4)c3)n2)cn1` [Example 61, Tert-butyl 3-(cyanomethyl)-3-(4-(7-(1-methyl-1H-pyrazol-4-yl)imidazo[1,2-c]pyrimidin-5-yl)-1H-pyrazol-1-yl)azetidine-1-carboxylate], the IC50 is > 1000 nM at JAK1, > 1000 nM at JAK3, 100 to 1000 nM on Human Tyk2 kinase domain and 100 to 1000 nM against JAK2.
Consider `Cn1cc(-c2cc3nccn3c(-c3cnn(C4(CC#N)CNC4)c3)n2)cn1` [Example 62, 2-(3-(4-(7-(1-Methyl-1H-pyrazol-4-yl)imidazo[1,2-c]pyrimidin-5-yl)-1H-pyrazol-1-yl)azetidin-3-yl)acetonitrile hydrochloride], for which the IC50 against JAK1 is > 1000 nM; against JAK3, > 1000 nM; on Human Tyk2 kinase domain, 100 to 1000 nM; against JAK2, > 1000 nM.
As to `CC(=O)N1CC(CC#N)(n2cc(-c3nc(-c4cnn(C)c4)cc4nccn34)cn2)C1` [Example 63, 2-(1-Acetyl-3-(4-(7-(1-methyl-1H-pyrazol-4-yl)imidazo[1,2-c]pyrimidin-5-yl)-1H-pyrazol-1-yl)azetidin-3-yl)acetonitrile], the IC50 at JAK1 was > 1000 nM; at JAK3, > 1000 nM; at Human Tyk2 kinase domain, 100 to 1000 nM; at JAK2, > 1000 nM.
Consider `Cn1cc(-c2cc3nccn3c(-c3cnn(C4(CC#N)CN(C(=O)CC(F)(F)F)C4)c3)n2)cn1` [Example 64, 2-(3-(4-(7-(1-Methyl-1H-pyrazol-4-yl)imidazo[1,2-c]pyrimidin-5-yl)-1H-pyrazol-1-yl)-1-(3,3,3-trifluoropropanoyl)azetidin-3-yl)acetonitrile], for which the half-inhibitory concentration (IC50) at JAK1 was 100 to 1000 nM; at JAK3 it was 100 to 1000 nM; at Human Tyk2 kinase domain, 10 to 100 nM; on JAK2 it was 10 to 100 nM.
Turning to `Cn1cc(-c2cc3nccn3c(-c3cnn(C4(CC#N)CN(C(=O)C5(C(F)(F)F)CC5)C4)c3)n2)cn1` [Example 65, 2-(3-(4-(7-(1-Methyl-1H-pyrazol-4-yl)imidazo[1,2-c]pyrimidin-5-yl)-1H-pyrazol-1-yl)-1-(1-(trifluoromethyl)cyclopropanecarbonyl)azetidin-3-yl)acetonitrile], the 50% inhibitory concentration (IC50) was 10 to 100 nM against JAK1, 100 to 1000 nM at JAK3, 10 to 100 nM on Human Tyk2 kinase domain and 10 to 100 nM on JAK2.
For `Cn1cc(-c2cc3nccn3c(-c3cnn(C4(CC#N)CN(C5CC5)C4)c3)n2)cn1` [Example 66, 2-(1-Cyclopropyl-3-(4-(7-(1-methyl-1H-pyrazol-4-yl)imidazo[1,2-c]pyrimidin-5-yl)-1H-pyrazol-1-yl)azetidin-3-yl)acetonitrile], the IC50 against JAK1 was 100 to 1000 nM; against JAK3, > 1000 nM; against Human Tyk2 kinase domain, 10 to 100 nM; against JAK2, 100 to 1000 nM.
Consider `Cn1cc(-c2cc3nccn3c(-c3cnn(C4(CC#N)CN(C5COC5)C4)c3)n2)cn1` [Example 67, 2-(3-(4-(7-(1-Methyl-1H-pyrazol-4-yl)imidazo[1,2-c]pyrimidin-5-yl)-1H-pyrazol-1-yl)-1-(oxetan-3-yl)azetidin-3-yl)acetonitrile], for which the IC50 is > 1000 nM on JAK1, > 1000 nM on JAK3, 10 to 100 nM on Human Tyk2 kinase domain and 100 to 1000 nM at JAK2.
`Cn1cc(-c2cc3nccn3c(-c3cnn(C4(CC#N)CN(c5ncccn5)C4)c3)n2)cn1` [Example 68, 2-(3-(4-(7-(1-Methyl-1H-pyrazol-4-yl)imidazo[1,2-c]pyrimidin-5-yl)-1H-pyrazol-1-yl)-1-(pyrimidin-2-yl)azetidin-3-yl)acetonitrile]: the half-inhibitory concentration (IC50) on JAK1 was > 1000 nM; against JAK3, > 1000 nM; against Human Tyk2 kinase domain, 100 to 1000 nM; on JAK2 it was > 1000 nM.
On to `Cn1cc(-c2cc3nccn3c(-c3cnn(C4(CC#N)CN(CC(F)F)C4)c3)n2)cn1` [Example 69, 2-(1-(2,2-dDifluoroethyl)-3-(4-(7-(1-methyl-1H-pyrazol-4-yl)imidazo[1,2-c]pyrimidin-5-yl)-1H-pyrazol-1-yl)azetidin-3-yl)acetonitrile], for which the IC50 was 100 to 1000 nM at JAK1, > 1000 nM against JAK3, < 10 nM against Human Tyk2 kinase domain and 10 to 100 nM against JAK2.
Take `Cn1cc(-c2cc3nccn3c(-c3cnn(C4(CC#N)CN(CC(F)(F)C(F)(F)F)C4)c3)n2)cn1` [Example 70, 2-(3-(4-(7-(1-Methyl-1H-pyrazol-4-yl)imidazo[1,2-c]pyrimidin-5-yl)-1H-pyrazol-1-yl)-1-(2,2,3,3,3-pentafluoropropyl)azetidin-3-yl)acetonitrile]: the IC50 was 10 to 100 nM on JAK1, 100 to 1000 nM against JAK3, < 10 nM on Human Tyk2 kinase domain and 10 to 100 nM against JAK2.
For the compound `Cn1cc(-c2cc3nccn3c(-c3cnn(C4(CC#N)CN(CC(F)(F)F)C4)c3)n2)cn1` [Example 71, 2-(3-(4-(7-(1-methyl-1H-pyrazol-4-yl)imidazo[1,2-c]pyrimidin-5-yl)-1H-pyrazol-1-yl)-1-(2,2,2-trifluoroethyl)azetidin-3-yl)acetonitrile], the concentration for half-maximal inhibition (IC50) on JAK1 was 100 to 1000 nM; against JAK3, > 1000 nM; against Human Tyk2 kinase domain, < 10 nM; at JAK2, 10 to 100 nM.

These data come from patent US8962596B2 (Array BioPharma Inc., priority 2010, dated 2015).
